This note sets out measurements from PubChem BioAssay (NCI).

Structures are written as SMILES.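 48-hour exposure; five concentrations; linearly interpolated endpoints. GI50 = concentration required for 50% inhibition of growth. TGI denotes the concentration required for complete inhibition of growth.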 A value given as a limit tells only on which side of the number the result lay.

Test systems include COLO 205 colon; HCT-116 colon; HCT-15 colon; HOP-62 NSCLC; K-562 leukemia; NCI-H226 lung; RXF 393 renal; SF-539 CNS; SK-MEL-2 melanoma; SK-MEL-5 melanoma.
Holding throughout (experiment): growth of human tumour cells (NCI), 48 h

`Cc1ccccc1-n1ncc(C(=O)c2ccccc2)c1N`: the GI50 in the assay on COLO 205 colon, with HCT-116 colon, with HCT-15 colon, in the assay on HOP-62 NSCLC, with K-562 leukemia and in the assay on NCI-H226 lung was > 25 µM throughout. Moreover, the GI50 in the assay on RXF 393 renal, in the assay with SF-539 CNS, in the assay with SK-MEL-2 melanoma and in the assay on SK-MEL-5 melanoma was > 25 µM throughout. The TGI in the assay with COLO 205 colon, in the assay with HCT-116 colon, in the assay with HCT-15 colon, in the assay on HOP-62 NSCLC, with K-562 leukemia and in the assay on NCI-H226 lung was > 25 µM in each case. Moreover, the TGI in the assay on RXF 393 renal, in the assay on SF-539 CNS, in the assay with SK-MEL-2 melanoma and with SK-MEL-5 melanoma was > 25 µM each time.

Regarding `O=C1c2nsnc2C(=O)c2c(F)c(F)c(F)c(F)c21`, the GI50 with COLO 205 colon is 0.236 µM; with HCT-116 colon, 0.426 µM; in the assay on HCT-15 colon, 0.495 µM; in the assay with HOP-62 NSCLC, 0.913 µM; in the assay with K-562 leukemia it was 0.238 µM; with NCI-H226 lung it was 1.93 µM. Also, the GI50 with RXF 393 renal was 0.339 µM; in the assay on SF-539 CNS, 1.7 µM; in the assay with SK-MEL-2 melanoma, 2.17 µM; with SK-MEL-5 melanoma it was 1.24 µM. Moreover, the TGI in the assay with COLO 205 colon was found to be 0.527 µM; with HCT-116 colon, 1.36 µM; in the assay with HCT-15 colon it was 2 µM; with HOP-62 NSCLC it was 2.24 µM; in the assay with K-562 leukemia, 1.01 µM; in the assay with NCI-H226 lung, 4.58 µM. Besides, the TGI came to 1.09 µM in the assay with RXF 393 renal, 3.14 µM in the assay with SF-539 CNS, 4.81 µM with SK-MEL-2 melanoma and 2.52 µM in the assay on SK-MEL-5 melanoma.

For the compound `COc1ccc(C(SCC(N)C(=O)O)(c2ccccc2)c2ccccc2)cc1` (stereo not given), the GI50 is 0.3 µM with COLO 205 colon; 0.043 µM in the assay on HCT-116 colon; 0.451 µM in the assay on HCT-15 colon; 0.392 µM in the assay on HOP-62 NSCLC; 0.0567 µM in the assay with K-562 leukemia; 11.8 µM in the assay with NCI-H226 lung. Moreover, the GI50 in the assay with RXF 393 renal was 0.19 µM; with SF-539 CNS it was 0.0721 µM; with SK-MEL-2 melanoma it was 5.03 µM; in the assay with SK-MEL-5 melanoma it was 0.0623 µM. Also, the TGI with COLO 205 colon was 15.8 µM; in the assay on HCT-116 colon, 25.8 µM; with HCT-15 colon it was > 72.2 µM; in the assay on HOP-62 NSCLC, > 84.5 µM; with K-562 leukemia, > 45.8 µM; in the assay on NCI-H226 lung, > 71.2 µM. Also, the TGI was > 100 µM in the assay with RXF 393 renal, 15.1 µM in the assay with SF-539 CNS, > 79.5 µM in the assay on SK-MEL-2 melanoma and 19.7 µM in the assay with SK-MEL-5 melanoma.

In the case of `C[C@]12CC[C@H](O)C[C@H]1CC[C@@H]1[C@@H]2CC[C@]2(C)[C@@H](C3=CC(=O)OC3)[C@@H](O)C[C@]12O`, the TGI in the assay on COLO 205 colon was 7.18 µM; in the assay with HCT-116 colon it was 4.37 µM; in the assay on HCT-15 colon, 7.21 µM; in the assay with HOP-62 NSCLC, 2.48 µM; with K-562 leukemia it was > 52.2 µM; in the assay on NCI-H226 lung it was 9.8 µM. The TGI in the assay on RXF 393 renal was determined as 3.51 µM; with SF-539 CNS, 2.28 µM; in the assay with SK-MEL-2 melanoma it was 5.02 µM; in the assay on SK-MEL-5 melanoma it was 3.2 µM.

On to `CNC(=O)OCc1c2ccncc2c(C)c2c1[nH]c1ccccc12`, for which the TGI was 1.82 µM in the assay with COLO 205 colon; 12.7 µM in the assay with HCT-116 colon; 1.76 µM with HCT-15 colon; 5 µM in the assay with HOP-62 NSCLC; > 100 µM in the assay on K-562 leukemia; 1.25 µM with NCI-H226 lung. The TGI came out at 0.17 µM in the assay with RXF 393 renal, 0.784 µM with SF-539 CNS, 0.548 µM in the assay with SK-MEL-2 melanoma and 0.773 µM in the assay with SK-MEL-5 melanoma.

Consider `COc1ccc2c(c1)[n+](=O)c(C(=O)c1ccco1)c(C(F)(F)F)n2[O-]`, for which the GI50 in the assay on COLO 205 colon was 3.55 µM; with HCT-116 colon, 0.851 µM; in the assay on HCT-15 colon, 1.16 µM; in the assay with HOP-62 NSCLC it was 2.86 µM; in the assay with K-562 leukemia, 5.24 µM; with NCI-H226 lung it was 3.04 µM. Moreover, the GI50 is 1.67 µM in the assay on RXF 393 renal, 3.41 µM with SF-539 CNS, 24 µM in the assay on SK-MEL-2 melanoma and 1.31 µM with SK-MEL-5 melanoma. Moreover, the TGI in the assay with COLO 205 colon was 18.7 µM; with HCT-116 colon, 15.1 µM; with HCT-15 colon, 4.6 µM; in the assay with HOP-62 NSCLC it was 21.6 µM; in the assay on K-562 leukemia it was > 100 µM; in the assay on NCI-H226 lung, 17.6 µM. Also, the TGI is 12 µM with RXF 393 renal, 15.6 µM in the assay with SF-539 CNS, > 100 µM in the assay on SK-MEL-2 melanoma and 2.68 µM with SK-MEL-5 melanoma.

With `COc1cc(OC)c(/C=C\c2ccnc3ccccc23)c(OC)c1`, the TGI stood at 8.2 µM with COLO 205 colon; 13.3 µM in the assay on HCT-116 colon; 18.5 µM in the assay with HCT-15 colon; 18.6 µM in the assay with HOP-62 NSCLC; 2.24 µM in the assay with K-562 leukemia; 16.8 µM in the assay with NCI-H226 lung. Moreover, the TGI in the assay with RXF 393 renal stood at 11.6 µM; with SF-539 CNS, 12.4 µM; in the assay on SK-MEL-2 melanoma, 19.4 µM; with SK-MEL-5 melanoma it was 5.88 µM.

In the case of `C=CC(C1=CC(=O)C(OC)=CC1=O)c1ccccc1` (stereo not given), the TGI in the assay with COLO 205 colon worked out at 36.6 µM; in the assay with HCT-116 colon, 23.4 µM; with HCT-15 colon, 32 µM; in the assay with HOP-62 NSCLC it was 32.4 µM; with K-562 leukemia, 13.2 µM; with NCI-H226 lung it was 39.6 µM. Further, the TGI in the assay with RXF 393 renal came to 29.2 µM; in the assay on SF-539 CNS, 29.9 µM; in the assay on SK-MEL-2 melanoma, 30.3 µM; with SK-MEL-5 melanoma, 30 µM.

On to `Cl.Fc1c[c-]c(-c2ccccn2)c(F)c1.[Pt].c1ccc(P(c2ccccc2)C([PH+](c2ccccc2)c2ccccc2)[PH+](c2ccccc2)c2ccccc2)cc1`, for which the GI50 with COLO 205 colon is 1.87 µM; in the assay on HCT-116 colon, 2.72 µM; in the assay on HCT-15 colon, 6.88 µM; with HOP-62 NSCLC, 2.63 µM; with K-562 leukemia, 2.44 µM; with NCI-H226 lung, 2.78 µM. In addition, the GI50 in the assay with RXF 393 renal was 3.09 µM; in the assay with SF-539 CNS it was 3.18 µM; in the assay with SK-MEL-2 melanoma, 2.54 µM; in the assay with SK-MEL-5 melanoma it was 2.08 µM. The TGI with COLO 205 colon is 3.92 µM; in the assay on HCT-116 colon it was 12.3 µM; in the assay on HCT-15 colon it was > 100 µM; with HOP-62 NSCLC, 9.78 µM; with K-562 leukemia it was > 100 µM; in the assay with NCI-H226 lung, 32.8 µM. Further, the TGI in the assay on RXF 393 renal was determined as 15.1 µM; with SF-539 CNS, 11.3 µM; with SK-MEL-2 melanoma it was 6.7 µM; in the assay with SK-MEL-5 melanoma, 4.53 µM.

Take `COC(=O)/C=C(\C(=O)OC)c1c2c3c(cc(OC)c(OC)c3c3ccccc13)CCN2C`: the TGI in the assay with COLO 205 colon is 31.7 µM; in the assay on HCT-116 colon, > 100 µM; with HCT-15 colon, > 100 µM; in the assay on HOP-62 NSCLC, 76.7 µM; in the assay with K-562 leukemia, 90.8 µM; in the assay on NCI-H226 lung it was > 100 µM. The TGI in the assay with RXF 393 renal is > 100 µM; in the assay on SF-539 CNS, 75.4 µM; in the assay on SK-MEL-2 melanoma, > 100 µM; with SK-MEL-5 melanoma, 34.3 µM.

`CC1COc2c(N3CCN(C)CC3)c(F)cc3c(=O)c(C(=O)O)cn1c23` (stereo not given): the GI50 is > 100 µM in the assay with COLO 205 colon; > 100 µM with HCT-116 colon; > 100 µM with HCT-15 colon; > 100 µM in the assay with HOP-62 NSCLC; 96.8 µM in the assay on K-562 leukemia; 93.1 µM with NCI-H226 lung. Further, the GI50 in the assay on RXF 393 renal, in the assay on SF-539 CNS, in the assay on SK-MEL-2 melanoma and with SK-MEL-5 melanoma was > 100 µM in each case. In addition, the TGI with COLO 205 colon, with HCT-116 colon, with HCT-15 colon, with HOP-62 NSCLC, in the assay on K-562 leukemia and in the assay on NCI-H226 lung was > 100 µM each time. Further, the TGI in the assay with RXF 393 renal, with SF-539 CNS, with SK-MEL-2 melanoma and in the assay with SK-MEL-5 melanoma was > 100 µM in each case.

`CC(C)(C)C(=O)OCOP(=O)(OCOC(=O)C(C)(C)C)C1CC(O)N(O)C1=O` (stereo not given): the GI50 with COLO 205 colon is 8.66 µM; in the assay with HCT-116 colon, 3.72 µM; with HCT-15 colon, 4.28 µM; in the assay with HOP-62 NSCLC, 5.28 µM; with K-562 leukemia, 3.66 µM; in the assay on NCI-H226 lung, 33.5 µM. Besides, the GI50 in the assay with RXF 393 renal is 2.37 µM; in the assay on SF-539 CNS it was 3.18 µM; with SK-MEL-2 melanoma, 5.14 µM; in the assay on SK-MEL-5 melanoma, 21.5 µM. The TGI with COLO 205 colon is > 100 µM; in the assay with HCT-116 colon, > 100 µM; in the assay with HCT-15 colon, > 100 µM; in the assay with HOP-62 NSCLC it was 26.8 µM; in the assay on K-562 leukemia, > 100 µM; with NCI-H226 lung, > 100 µM. For the same compound, the TGI in the assay with RXF 393 renal was 7.71 µM; with SF-539 CNS, 22.1 µM; in the assay with SK-MEL-2 melanoma it was 92.1 µM; with SK-MEL-5 melanoma, > 100 µM.

Consider `CC(=O)c1cc(C(=O)c2ccc3c(c2)Sc2ccccc2N3)c2c(C)cc(C)cn12`, for which the GI50 with COLO 205 colon was 0.222 µM; in the assay on HCT-116 colon, 0.263 µM; in the assay on HCT-15 colon, 0.344 µM; in the assay on HOP-62 NSCLC, 0.394 µM; in the assay with K-562 leukemia it was 0.222 µM; in the assay with NCI-H226 lung, 0.73 µM. The GI50 is 0.162 µM with RXF 393 renal, 0.185 µM in the assay with SF-539 CNS, 0.317 µM in the assay with SK-MEL-2 melanoma and 0.402 µM in the assay on SK-MEL-5 melanoma. Moreover, the TGI is 0.535 µM with COLO 205 colon; > 100 µM with HCT-116 colon; > 100 µM with HCT-15 colon; > 63 µM in the assay on HOP-62 NSCLC; > 100 µM with K-562 leukemia; > 100 µM in the assay with NCI-H226 lung. Moreover, the TGI in the assay on RXF 393 renal is 0.699 µM; in the assay on SF-539 CNS it was 0.535 µM; in the assay with SK-MEL-2 melanoma it was > 100 µM; in the assay with SK-MEL-5 melanoma, 2.13 µM.
